According to PMC10291556 (Journal of Medicinal Chemistry, 2023):

Tests used:
[1] = test system: MRC-5; assay: MTT assay in non-cancerous fibroblasts, 72 h; format: cell-based; settings: non-cancerous human fibroblasts, 72 h incubation, mean ± SD
Protocol: Cells were treated with the tested compounds in a final volume of 200 μL/well. […] Calbiochem, Darmstadt, Germany) was added, and the cells were incubated for an additional 2–4 h. The medium was removed, and the insoluble formazan product was dissolved in 100 μL/well DMSO. […] The read values were converted to the percentage of control. […] All experiments were made in triplicate.

[2] = test system: HeLa cells; assay: Cellular accumulation of platinum (ICP-MS); format: cell-based, human; settings: for cellular uptake 0.1 μM/24 h: 0.1 μM complex; for cellular uptake 1 μM/6 h: 1 μM complex; for cellular uptake 10 μM/6 h: 10 μM complex
Protocol: Briefly, 3 × 10^6 cells were seeded in 100 mm culture dishes and grown overnight. The cells were exposed to the tested complexes at indicated concentrations for indicated periods. […] The pellets were digested using the microwave acid (HCl) digestion system (CEM Mars). The platinum quantity taken up by the cells was determined by inductively coupled plasma mass spectrometry (ICP–MS). All experiments were performed in triplicate.

[3] = test system: A2780cisR; assay: MTT antiproliferative assay, 72 h; format: cell-based, human; settings: MTT, 72 h incubation, mean ± SD; read-out: IC50 A2780cisR
Protocol: (§1) Cells were treated with the tested compounds in a final volume of 200 μL/well. […] Calbiochem, Darmstadt, Germany) was added, and the cells were incubated for an additional 2–4 h. The medium was removed, and the insoluble formazan product was dissolved in 100 μL/well DMSO. The absorbance was read at 570 nm (vs 620 nm) using an Absorbance Reader (SUNRISE TECAN SCHOELLER). The read values were converted to the percentage of control. […] All experiments were made in triplicate.

[4] = test system: HeLa; assay: MTT antiproliferative assay, 72 h; format: cell-based, human; settings: MTT, 72 h incubation, mean ± SD; read-out: IC50 HeLa
Protocol: as §1

[5] = test system: HCT-116; assay: MTT antiproliferative assay, 72 h; format: cell-based, human; settings: MTT, 72 h incubation, mean ± SD; read-out: IC50 HCT-116
Protocol: as §1

[6] = test system: A2780; assay: MTT antiproliferative assay, 72 h; format: cell-based, human; settings: MTT, 72 h incubation, mean ± SD; read-out: IC50 A2780
Protocol: as §1

[7] = test system: MCF-7; assay: MTT antiproliferative assay, 72 h; format: cell-based, human; settings: MTT, 72 h incubation, mean ± SD; read-out: IC50 MCF-7
Protocol: as §1

[8] = test system: MDA-MB-231; assay: MTT antiproliferative assay, 72 h; format: cell-based, human; settings: MTT, 72 h incubation, mean ± SD; read-out: IC50 MDA-MB-231
Protocol: as §1

[9] = test system: DNA isolated from HeLa cells; assay: Pt associated with DNA isolated from treated HeLa cells; format: cell-based, human; settings: 1 µM compound, 6 h, mean ± SD
From the text: page 16: Table S1: […] concentration of tested compounds for 6 ha. […] Figure S19: A. Representative histograms obtained by flow cytometric analysis of calreticulin exposure in HeLa cells treated with indicated compounds. B. An example of gating DAPI negative population. Only DAPI-negative cells were taken for the evaluation.

[10] = test system: HeLa cells; assay: Wound healing assay; format: cell-based, human; settings: 24 h, multiples of IC50,72h
Protocol: Figure 7 (A–E) Wound healing assay. The monolayer of HeLa cells was scratched with a 10 μL tip, and a starving medium containing the tested complexes was added. The shots were taken at times 0 and 24 h. (A) Control, non-treated cells; (B) cells treated with complex 3; (C) cells treated with complex 4. […] (E) Evaluation of wound healing assay. Bars represent gap size vs. Control (100%), following a 24 h incubation with the investigated compounds. Light gray bars: complex 3; dark gray bars: complex 4; black bar: complex 2. (F) Re-adhesion assay. […] Following trypsinization, the cells were resuspended in Dulbecco’s modified Eagle medium (DMEM), counted, left to reconstitute adhesive membrane proteins for 30 min, and re-seeded at the density of 3× 10^4 cells/100 μL/well. After 30 min of incubation at 37 °C, the re-adhesion activity was determined as described in the Experimental Section. Data represents mean ± SD, n = 8; *p < 0.05, **p < 0.01, ***p < 0.001.
HeLa cells were grown close to confluence in 6-well plates in a complete medium, and then the medium was replaced with a serum-free medium [supplemented with 0.1% bovine serum albumin (BSA)], and the cells were incubated for an additional 24 h. The HeLa monolayers were scratched with a 10 μL pipet tip, and the cells were washed twice with PBS to remove peeled cells and treated with tested compounds at indicated concentrations. The scratched areas were shot immediately after the complex addition and then after 24 h with a Canon EOS 1200D camera attached to an Olympus CKX41 inverted microscope with a 10×/0.25 phase contrast objective. Digital images were taken by the QuickPHOTO MICRO 3.1 program (PROMICRA, Prague, Czech Republic) and processed with the TScratch analysis software (ETH Zürich, Switzerland). The cell’s ability to migrate into the open area was expressed as a percentage of control.

[11] = test system: COX-2 in HeLa cells; assay: Western blotting of COX-2; format: cell-based, human; settings: 24 h, 1×, 3× IC50, Western blot
Protocol: (B) Quantitative evaluation of Western blotting data; the relative expression of COX-2 normalized to GAPDH. Data represents the mean ± SD of two experiments. The stars indicate the statistical significance of difference vs control determined with the Student t-test (*p < 0.05, **p < 0.01, ***p < 0.001).
HeLa cells were seeded in 60 mm dishes at a density of 3 × 10^5 cells/dish and cultured for 20 h. The cells were then treated with the tested compounds at concentrations indicated in the text. After 24 h of treatment, the cells were scraped, washed, and pelleted. […] 4–20% SDS-PAGE (sodium dodecyl sulfate-polyacrylamide gel electrophoresis) (Mini-PROTEAN TGX Precast Gel) was used to resolve the proteins. After transferring to the polyvinylidene fluoride membrane, the proteins were detected using appropriate antibodies: anti-GAPDH antibody (mouse, Sigma-Aldrich), Anti-COX-2 (rabbit, Abcam), Anti-α-, β-, or γ-tubulin (all rabbit, Abcam), Anti-β-actin (mouse, Abcam), Goat Anti-Rabbit IgG(HRP) (Abcam; HRP = horseradish peroxidase), and Goat Anti-Mouse IgG(HRP) (ThermoFisher Scientific). SignalFire ECL Reagent (A + B) was used as a substrate for HRP, and the luminescence was recorded with Amersham Imager 680. The densities in the images were assessed with the Aida image analysis software.

[12] = test system: HeLa cells; assay: Mitochondrial membrane potential (TMRE, flow cytometry); format: cell-based, human; settings: 10× IC50, 1 h, vs untreated control
Protocol: Figure 4 Changes in the mitochondrial membrane potential Δψm in HeLa cells. The cells were treated with Pt compounds at the concentrations corresponding to 10× IC50 for 1 h and subsequently stained with TMRE. The fluorescence was measured by flow cytometry. Data represents mean ± SD from three independent experiments, *p < 0.01.
HeLa cells were seeded (6-well plates, 3 × 10^5 cells/well), grown overnight, and then treated with the tested compounds for 1 h. The medium was removed, and a fresh medium containing TMRE (Thermo Fisher Scientific) at a final concentration of […] in 500 μL was added. The cells were incubated for 30 min at 37 °C and then harvested using trypsin. TMRE fluorescence was measured with a fluorescence-activated cell sorting (FACS) Verse flow cytometer (Becton Dickinson), and the data were analyzed using the ModFit LT 4.1 (Verity Software House) software. The experiment was performed in triplicate.

[13] = Partition coefficient, shake-flask method; format: physicochemical; settings: octanol/water
Protocol: The “shake flask” method was used to measure the partition coefficients (P) of platinum compounds. The compounds were dissolved in octanol-saturated water (OSW) containing 200 mM NaCl. […] After careful separation of the layers with a fine-tip pipet, the Pt content in individual phases was determined by flameless atomic absorption spectrometry. The partition coefficients were calculated as the concentration ratio of the compound in the octanol layer to that in the aqueous layer, log P = log([Pt]WSO/[Pt]OSW).

[14] = test system: HeLa cells / Thp-1/PMA macrophages; assay: Phagocytosis of treated HeLa cells by Thp-1/PMA macrophages; format: cell-based, human; settings: HeLa treated 24 h at 1× or 3× IC50,72h, co-incubated 2.5 h with Thp-1/PMA macrophages
Protocol: Figure 8 Hallmarks of ICD. (A) Extracellular ATP levels in HeLa cell supernatants. […] (B) Extracellular level of HMGB1. […] (C) Calreticulin exposure to the cell surface. […] The surface calreticulin exposure was determined in 4′,6-diamidino-2-phenylindole dihydrochloride (DAPI)-negative cell population. Relative fluorescence intensity was calculated as the median fluorescence of the population of treated cells/median fluorescence of untreated control cells. The data in panels A, B, and C are shown as a mean of 4–5 measurements ± SD. Statistical significance from untreated control was determined with the Student t-test (*p ≤ 0.05, **p ≤ 0.01, and ^#p ≤ 0.001). (D) Quantitative evaluation of phagocytosis of HeLa cells treated with the investigated compounds by human Thp-1/PMA macrophages (analyzed by flow cytometry). […] Error bars are the SEMs calculated from three independent experiments. The stars denote a significant difference from untreated control (*p ≤ 0.05, **p ≤ 0.01) as calculated by the […] Student t-test. […]
Human monocytic leukemia cells Thp-1 (obtained from American Type Culture Collection, ATCC) were differentiated into macrophages with phorbol 12-myristate 13-acetate (PMA, 100 nM) for 24 h. […] Phagocytosis was evaluated using flow cytometry (BD FACSVerse), and data were analyzed with FCS Express 7 (DeNovo software; Glendale, CA). […]

[15] = test system: HeLa cells; assay: Calreticulin exposure (flow cytometry); format: cell-based, human; settings: 3× IC50, 16–18 h, DAPI-negative cells
Protocol: Following the treatment, the cells were harvested (trypsin), washed with FACS buffer (PBS, BSA 1%, and FBS 2%), and incubated with Alexa Fluor 488 Anti-Calreticulin antibody for 40 min at 4 °C. The buffer was removed (CFG, 300 g, 3 min) and replaced with FACS buffer containing DAPI (1 μg mL^–1, 20 min), and the cells were analyzed with flow cytometry (BD FACS Verse) and FCS Express 6 (DeNovo Software, Glendale, CA). Calreticulin fluorescence histograms were analyzed in the DAPI-negative (intact membrane) cell population.

[16] = test system: HeLa cells; assay: HMGB1 release (ELISA); format: cell-based, human; settings: 1×, 2×, 3× IC50, 20 h
Protocol: (B) Extracellular level of HMGB1. […] The data in panels A, B, and C are shown as a mean of 4–5 measurements ± SD. Statistical significance from untreated control was determined with the Student t-test (*p ≤ 0.05, **p ≤ 0.01, and ^#p ≤ 0.001).
HeLa cells were seeded in 24-well plates at a density of 10^4 cells/well and grown overnight. The medium was removed, and a fresh medium (DMEM, 1% BSA, no FBS) containing indicated concentrations of tested complexes was added (300 μL). Following a 20 h treatment, medium samples were withdrawn, and the HMGB1 content was determined using an HMGB1 ELISA Kit (IBL international) following the instructions for use. Cell counts in corresponding wells were determined using Automated Cell Counter (Bio-Rad). HMGB1 concentrations were normalized to cell counts and to the value of untreated control. The experiment was performed twice with duplicate readings.

[17] = test system: HeLa cells; assay: ATP secretion; format: cell-based, human; settings: 1× and 3× IC50, 24 h
Protocol: HeLa cells were seeded in 24-well plates at a density of 10^4 cells/well, grown overnight, and then treated with the tested complexes for 24 h. Aliquots of culture medium samples were withdrawn, centrifugated (500g, 3 min), and processed with ATP Bioluminescence Assay Kit CLS II, Roche. Briefly, 50 μL of cell-free medium samples were added to a 96-well flat white plate, and an equal volume of luciferase reagent was added. The luminescence was measured immediately on a plate reader (SPARK, Tecan). The blank (no ATP) was subtracted from the raw data. ATP concentrations were obtained from the standard curve and normalized to cell counts and control. The data are shown as MEAN of 4–5 independent measurements.

[18] = test system: COX in HeLa cells; assay: COX activity assay (kit) in treated cells; format: cell-based, human; settings: 24 h, 1× IC50,72h, vs untreated control
Protocol: The results are expressed relative to the COX activity of untreated control.
HeLa cells were seeded in 6-well plates at a density of 10^5 cells/well and incubated overnight. The cells were treated with the tested compounds at concentrations corresponding to 1× IC50. Following a 24 h treatment, the cells were lyzed with radioimmunoprecipitation assay (RIPA) buffer supplemented with proteinase inhibitors on ice for 10 min. The extracts were cleared with centrifugation (12,000g/5 min), and protein content was determined using Bradford assay. COX activity was determined with a COX Activity Assay Kit (Abcam). 6 μg of protein was used in the reaction. The experiment was set up according to the manufacturer’s instructions. The fluorescence (Ex/Em 535/587 nm) was read in a kinetic mode, and the COX inhibition was expressed as a percentage of the activity of the untreated control.

## N.N.[Cl][Pt][Cl] [cisplatin, reference compound]
[1]
  IC50: 7.3 ± 0.9 µM
[2]
  cellular uptake 0.1 μM/24 h: 0.3 ± 0.1 ng Pt/10^6 cells
  cellular uptake 1 μM/6 h: 2.3 ± 0.3 ng Pt/10^6 cells
  cellular uptake 10 μM/6 h: 10 ± 3 ng Pt/10^6 cells
[3]
  IC50: 20 ± 2 µM
[4]
  IC50: 15 ± 3 µM
[5]
  IC50: 8 ± 1 µM
[6]
  IC50: 3.5 ± 0.6 µM
[7]
  IC50: 14 ± 3 µM
[8]
  IC50: 22 ± 2 µM
[9]
  amount of Pt associated with DNA: 2.8 ± 0.2 pg Pt/µg DNA

## Cc1c(C)c2c3c4c1=CC=C[N]4[Pt]([Cl])([Cl])[N]3C=CC=2.N[C@H]1CCCC[C@@H]1N [complex 2, Pt^IV56MeSSCl2]
[1]
  IC50: 2.1 ± 0.4 µM
[10]
  migration activity (wound closing): less efficient in inhibting artificial wound closing
[11]
  intracellular level of COX-2 protein: markedly less effective
[2]
  cellular uptake 0.1 μM/24 h: 2.2 ± 0.2 ng Pt/10^6 cells
  cellular uptake 1 μM/6 h: 6.2 ± 0.3 ng Pt/10^6 cells
  cellular uptake 10 μM/6 h: 47 ± 2 ng Pt/10^6 cells
[12]
  mitochondrial membrane potential Δψm (TMRE fluorescence): insignificant impact on the Δψm
[3]
  IC50: 0.4 ± 0.08 µM
[4]
  IC50: 2.9 ± 0.7 µM
[5]
  IC50: 1.6 ± 0.4 µM
[6]
  IC50: 0.39 ± 0.01 µM
[7]
  IC50: 5.9 ± 0.5 µM
[8]
  IC50: 1.5 ± 0.4 µM
[9]
  amount of Pt associated with DNA: 1.9 ± 0.1 pg Pt/µg DNA
[13]
  log P: –2.1 ± 0.2

## COc1cccc2c1C(=O)c1c(O)c3c(c(O)c1C2=O)C[C@@](O)(C(=O)CO)C[C@@H]3O[C@H]1C[C@H](N)[C@H](O)[C@H](C)O1 [doxorubicin, reference compound]
[14]
  increase of tumor-cell phagocytosis: slightly less pronounced levels of phagocytosis

## NCCNC(=O)Cc1ccccc1Nc1c(Cl)cccc1Cl [enDCF, diclofenac amide]
[1]
  IC50: 58 ± 6 µM
[15]
  externalization of calreticulin: effective as well
[12]
  mitochondrial membrane potential Δψm (TMRE fluorescence): The same effect
[4]
  IC50: 30 ± 2 µM
[5]
  IC50: 27 ± 4 µM
[7]
  IC50: 37 ± 4 µM
[8]
  IC50: 32 ± 3 µM
[16]
  HMGB1 secretion: effective as well
[17]
  ATP secretion: effective as well
[18]
  inhibition of COX activity: Inhibition of COX activity was also observed
